Assay results published in publication PMC4759522, “A fragment merging approach towards the development of small molecule inhibitors of Mycobacterium tuberculosis EthR for use as ethionamide boosters” (Organic & Biomolecular Chemistry, 2016).
Where two headings read alike, the source gives them in different places.

Columns and labels:
[1] = biological target: T1, EthR (Mycobacterium tuberculosis, UniProt P9WMC1); assay: SPR functional assay: disruption of the interaction between EthR and its DNA operator; type: biochemical; conditions: for LE: calculated using IC50 values determined by SPR; for fold improvement by SPR compared to compound 5: compared to merged compound 5
Experimental: (§1) containing NaCl (300 mM), Tris.HCl (20 mM, pH = 8.0) and DMSO-d6 (10% v/v) was prepared and placed in the sample cell of a MicroCal iTC200 microcalorimeter (GE Healthcare). The fragment solution was then titrated to the EthR solution over 39 injections (first injection of 0.4 μl and subsequent injections of 1.0 μl). Data was fitted to a one site binding model using Origin software.
(§2) Figure S6 ITC trace for 4-(4-(3-Oxo-3-(pyrrolidin-1-yl)propyl)piperidin-1-yl)benzonitrile 15 Surface plasmon resonance (SPR)
(§3) The SPR assay was carried out using a BIAcore T100 instrument as described previously.2 The assay was designed to measure the interaction of EthR with the ethA promoter DNA sequence (106 bp – experimental DNA), immobilised via biotin-streptavidin linkage onto an […]
(1 picture or pasted object on this page, not shown here)
SA Series S Sensor Chip (BIAcore). DNA from pUC19 (113 bp) was used as the control against non-specific binding. The experimental (106 bp) and control (113 bp) DNA fragments were produced as described previously.15,16 Biotinylated control and experimental DNA were immobilized to the chip surface to achieve stable fixation levels of 247 and 252 resonance units (RU) respectively.
For screening, EthR/ fragment solution (1-2 μM EthR and required concentration of fragment made up in running buffer (2 mM MgCl2, 10 mM Tris-Cl pH 7.5, 0.1 mM EDTA, 200 mM NaCl, 2% (v/v) DMSO) was flowed over the chip at 20 μL/min for 180 s. The dissociation time was 180 s. To determine binding levels, the response of the control channel at steady state was subtracted from that of the experiment channel. The chip was regenerated between samples using 0.03% w/v SDS in running buffer (passed at a flow rate of 20 μL/ min for 60 […]
For IC50 calculations, the SPR response of EthR binding to the immobilized DNA was measured at various concentrations of compound. The resulting RUs were used to fit the data using nonlinear regression with variable slope dose-response inhibition constrains on GrapfPad PRISM 5.00. IC50 values were calculated as the compound concentrations necessary to inhibit 50% of the maximal interaction between EthR and its DNA operator […]
Figure S7 IC50 curve (SPR) for N-((1-(4-Cyanophenyl)piperidin-4-yl)methyl)pyrrolidine-1-

[2] = biological target: T1, EthR; assay: Isothermal titration calorimetry (ITC) binding to EthR; conditions: for K D (ITC): n.d. = no heats of binding detected
Excerpt: Figure S5 Crystal structure of 28 bound to EthR (the two different binding modes for this ligand are super-imposed). Although the conformations of the side chains of residues Phe184 and Trp138 preclude the formation of sub-pockets III and IV in the sense of Figure S3, compound 28 is still capable of binding to the protein by altering the shape of the EthR hydrophobic cavity and moulding it around its own scaffold. (PDB code 5F0H) […]
Differential scanning fluorimetry (DSF)
DSF measurements were carried out using a Bio-Rad CFX Connect machine with a 96-well reaction module. Samples (50 μl each) containing EthR (20 μM), NaCl (150 mM), Tris.HCl (20 mM, pH = 8.5), SYPRO orange (2.5x) and test compound (100 µM) in water were prepared in 96-well plates. The 96-well plates were heated linearly from 25 °C to 95 °C using a temperature increment of 0.5 °C every 30 seconds. Melting curves represent plots of the fluorescence emission intensity at λmax 490/575 nm of each sample against temperature.
Melting temperatures (Tm) were determined as the temperatures at which the minima on the negative first derivatives of the melting curves occurred.
Isothermal titration calorimetry (ITC)
An aqueous solution of the fragment to be tested (1 mM) was prepared containing NaCl (300 mM), Tris.HCl (20 mM, pH = 8.0), d6-DMSO (10% v/v) and glycerol (to match the 10% v/v glycerol content in the EthR stock solution). A separate aqueous solution of EthR (50 μM) […]
(1 picture or pasted object on this page, not shown here) […]
as §1, §2, §3

[3] = biological target: T1, EthR; assay: Fluorescence-based thermal shift (DSF) against EthR; type: binding; conditions: fluorescent-based thermal shift against EthR, 100 μM compound

T1 sequence (P9WMC1 whole entry, looked up, the tested form may be a part): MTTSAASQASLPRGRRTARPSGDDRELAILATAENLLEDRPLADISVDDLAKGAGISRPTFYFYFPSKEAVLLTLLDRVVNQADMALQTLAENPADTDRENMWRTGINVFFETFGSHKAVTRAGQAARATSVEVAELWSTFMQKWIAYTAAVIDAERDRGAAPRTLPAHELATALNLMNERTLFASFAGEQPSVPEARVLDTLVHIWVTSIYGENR

O=C(CCC1CCCC1)N1CCCC1 [Compound 1]
IC50 [1]: 280 µM | LE [1]: 0.36 | Kd [2]: 12 µM | ΔT m [3]: +3.5 °C

CNCc1ccc(N2CCCCC2)cc1 [Compound 2]
IC50 ([1]; disruption of EthR binding to its DNA operator, SPR, read-out: IC50 (SPR)): > 100 µM | ΔT m [3]: +3.8 °C

CNCc1ccc(N2CCCN(C(=O)CCC3CCCC3)C2)cc1 [Compound 3, 3-cyclopentyl-1-(3-(4-((methylamino)methyl)phenyl)tetrahydropyrimidin-1(2H)-yl)propan-1-one]
IC50 [1]: > 100 µM

O=C(CCC1CCCC1)Nc1cccc(N2CCCCC2)c1 [Compound 4]
IC50 [1]: > 100 µM | ΔT m [3]: +4.5 °C

CNCc1ccc(N2CCC(CCC(=O)N3CCCC3)CC2)cc1 [Compound 5]
IC50 [1]: 35 µM | fold improvement in disruption of EthR-DNA interaction (SPR IC50) compared to starting fragment 1 ([1]; compared to fragment 1): eight-fold | Kd [2]: 5 µM | ΔT m [3]: +4.3 °C

CN(Cc1ccc(N2CCC(CCC(=O)N3CCCC3)CC2)cc1)C(=O)OC(C)(C)C [Compound 14]
IC50 [1]: 7 µM | fold improvement by SPR compared to compound 5 [1]: five-fold | Kd [2]: 3 µM | ΔT m [3]: +6.3 °C

N#Cc1ccc(N2CCC(CCC(=O)N3CCCC3)CC2)cc1 [Compound 15, 4-(4-(3-Oxo-3-(pyrrolidin-1-yl)propyl)piperidin-1-yl)benzonitrile]
IC50 [1]: 3 µM | LE [1]: 0.34 | fold improvement by SPR compared to compound 5 [1]: 10 fold | Kd [2]: 1 µM | fold decrease in K D by ITC compared to compound 5 ([2]; compared to compound 5): five-fold | ΔT m [3]: +7.5 °C

CCOC(=O)c1ccc(N2CCC(CCC(=O)N3CCCC3)CC2)cc1 [Compound 16]
IC50 [1]: 3 µM | K D (ITC) [2]: binding could not be measured by ITC | ΔT m [3]: +9.3 °C

N#Cc1ccc(N2CCC(CNC(=O)N3CCCC3)CC2)cc1 [Compound 17, N-((1-(4-Cyanophenyl)piperidin-4-yl)methyl)pyrrolidine-1-carboxamide]
IC50 [1]: 4 µM | ΔT m [3]: +7.2 °C

CCOC(=O)c1ccc(N2CCC(CNC(=O)N3CCCC3)CC2)cc1 [Compound 18]
IC50 [1]: 2 µM | ΔT m [3]: +8.8 °C

N#Cc1ccc(N2CCC(CNC(=O)C3CCCC3)CC2)cc1 [Compound 19]
IC50 [1]: 25 µM | ΔT m [3]: +5.9 °C

CCOC(=O)c1ccc(N2CCC(CNC(=O)C3CCCC3)CC2)cc1 [Compound 20]
IC50 [1]: > 100 µM | ΔT m [3]: +5.5 °C

O=C(NCC1CCN(c2ccccn2)CC1)N1CCCC1 [Compound 21]
IC50 [1]: 22 µM | LE [1]: 0.31 | Kd [2]: 24 µM | ΔT m [3]: +3.8 °C

O=C(NCC1CCN(c2ncccn2)CC1)N1CCCC1 [Compound 22]
IC50 [1]: 20 µM | Kd [2]: 12 µM | ΔT m [3]: +3.7 °C

N#Cc1ccc(N2CCC(CCC(=O)Nc3cccc(N4CCCCC4)c3)CC2)cc1 [Compound 23, 3-(1-(4-cyanophenyl)piperidin-4-yl)-N-(3-(piperidin-1-yl)phenyl)propanamide]
IC50 [1]: > 100 µM | K D (ITC) [2]: could not be observed by ITC

N#Cc1ccc(N2CCC(CCC(=O)NCc3ccc(N4CCCCC4)cc3)CC2)cc1 [Compound 28]
IC50 [1]: 33 µM | K D (ITC) [2]: could not be observed by ITC

N#Cc1ccc(N2CCC(CCC(=O)NCc3cccc(N4CCCCC4)c3)CC2)cc1 [Compound 29]
IC50 [1]: 52 µM | K D (ITC) [2]: could not be observed by ITC | ΔT m [3]: +9.2 °C
